Experimental findings from PMC2779455, “The E3 Ubiquitin-Ligase Bmi1/Ring1A Controls the Proteasomal Degradation of Top2α Cleavage Complex – A Potentially New Drug Target” (PLoS ONE, 2009) are described below.

The test addresses T1, Ring1A (Homo sapiens, UniProt Q06587).
T1 construct: gene RING1; recombinant GST fusion of Ring1A (N-terminal HA tag, C-terminal six-histidine tag) in complex with GST-Bmi1, from E. coli; with Bmi1
T1 sequence (Q06587 1-406): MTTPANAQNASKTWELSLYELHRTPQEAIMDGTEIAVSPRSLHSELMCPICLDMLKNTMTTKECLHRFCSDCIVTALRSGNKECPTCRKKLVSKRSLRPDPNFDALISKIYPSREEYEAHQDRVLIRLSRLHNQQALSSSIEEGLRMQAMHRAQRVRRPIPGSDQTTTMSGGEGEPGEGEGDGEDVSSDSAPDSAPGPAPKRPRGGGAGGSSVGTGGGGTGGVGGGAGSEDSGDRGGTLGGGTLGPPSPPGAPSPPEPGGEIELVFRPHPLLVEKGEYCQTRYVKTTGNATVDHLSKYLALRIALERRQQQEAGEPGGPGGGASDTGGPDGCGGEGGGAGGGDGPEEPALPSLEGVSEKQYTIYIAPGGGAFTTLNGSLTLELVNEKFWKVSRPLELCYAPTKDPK
T1 sequence (P35226 1-326 partner): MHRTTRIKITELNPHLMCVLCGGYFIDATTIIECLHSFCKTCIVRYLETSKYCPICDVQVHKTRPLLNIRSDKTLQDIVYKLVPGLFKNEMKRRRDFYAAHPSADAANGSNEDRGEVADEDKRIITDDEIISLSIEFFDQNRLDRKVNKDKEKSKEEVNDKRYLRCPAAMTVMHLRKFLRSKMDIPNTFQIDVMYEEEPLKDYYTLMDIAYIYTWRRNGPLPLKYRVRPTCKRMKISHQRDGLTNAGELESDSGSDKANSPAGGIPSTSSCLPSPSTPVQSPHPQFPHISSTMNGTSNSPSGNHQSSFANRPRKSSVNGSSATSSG
The test is described as follows: cell-free HTRF ubiquitination assay (E1, UbcH5a, Flag-ubiquitin), confirmed by gel-based Western blot. The class given is biochemical. On the technique in general: TR-FRET usually uses a lanthanide donor and a delayed reading to cut background.

A word on the IC50: it is the concentration that inhibits the measured activity by half. Higher therefore signals lower potency. As for `O=C1C(=Cc2cccnc2)C(=O)c2ccccc21` [PRT4165], it took 3.9 µM to reach half-maximal inhibition (IC50).
